Results reported in publication PMC11249239 (PLOS ONE, 2024).

Tested on: MCF10A normal breast epithelial cells
Assay: Cell growth inhibition (CCK8 cytotoxicity assay), MCF10A
Format: cell-based
Settings: Homo sapiens, MCF-10A, 48 h treatment, read-out: Average EC50 ± SD, cell growth inhibition

Work on `O=C(CCCCCCC(=O)Nc1ccccc1)NO` [SAHA, reference compound] yielded an EC50 of 10.1 ± 0.982 µM.
